Assay results published in patent publication US11155821B2, “Compositions and methods for tagging ribonucleic acids” (The Regents of the University of Colorado, a body corporate, priority 2018, dated 2021).

How the values were obtained:
[1] = system: RNA AT,MUT (four point mutations in the Cbl-binding site); assay: In vitro fluorescence turn-on, plate reader, aptamer AT,MUT; assay type: biochemical; conditions: probe 0.25 or 0.5 μM, RNA at least 5 μM
Protocol: (§1) The concentration of Cbl-fluorophore probes, free fluorophores and free Cbl was determined using extinction coefficients listed in Table 1B. In vitro experiments were conducted in RNA buffer (100 mM KCl, 10 mM NaCl, 1 mM MgCl2, 50 mM HEPES, pH 8.0). For the Cbl-fluorophore probes, the extinction coefficient of the fluorophores was used to determine the concentration. […] The fluorescence intensity of each probe was measured in the presence or absence of RNA in RNA buffer as technical triplicates in a Tecan Safire-II fluorescence plate. […] Samples were incubated for at least 20 minutes (min) at room temperature in the dark to allow for Cbl-binding of the RNA prior to data collection. The excitation wavelength for each probe is listed in Table 1B and the emission spectrum was collected in 1 nm increments for the range listed in Table 1B. Each emission spectrum was buffer subtracted, integrated and normalized to the signal of the free fluorophore at the same concentration. Resulting % fluorescence measurements were reproducible for measurements on different days.

RNA AT = assay: In vitro fluorescence turn-on, plate reader, aptamer AT; assay type: biochemical; conditions: probe 0.25 or 0.5 μM, RNA at least 5 μM
Protocol: as §1

Broccoli = assay: Photobleaching of RNA/probe complexes, constant illumination, Broccoli; assay type: physicochemical; conditions: bound to Broccoli, within a second
Protocol: For photobleaching experiments, indicated probes and RNA (Table 10) were mixed before about 3 to 4× of microscope immersion oil (Olympus immersion oil type-F) was added and the solution was emulsified to generate droplets. Samples were prepared in RNA buffer for Cbl-fluorophore samples (100 mM KCl, 10 mM NaCl, 1 mM MgCl2, 50 mM HEPES, pH 8.0) and in Broccoli buffer (40 mM HEPES pH 7.4, 100 mM KCl, 1 mM MgCl2) for the DFHBI-1T/Broccoli sample. The droplets were sandwiched between a glass slide and a coverslip. The sample was placed on the sample stage of a Nikon Ti-E HCA widefield fluorescence microscope with the coverslip facing a 20× objective lens. Photostability was assessed in part by fixing the excitation rate, i.e. the number of absorbed excitation photons were the same for Cbl-fluorophore/RNA samples and the DFHBI-1T/Broccoli sample. The high irradiance for the DFHBI-1T Broccoli sample is a result of its low extinction coefficient. Images were acquired every 50 ms for DFHBI-1T/Broccoli and every 250 ms for others for 3 seconds, then every second for 47 seconds or longer, and the exposure time of each image was 15 ms for DFHBI-1T/Broccoli and 40 ms for others. A total of 6 to 15 droplets were analyzed for each sample.

ACTB-(2xdBroccoli) mRNA = assay: Stress granule (SG) assay, live U2-OS Halo-G3BP1 cells, Broccoli tag; assay type: cell-based, Homo sapiens; conditions: arsenite
Protocol: U2-OS cells stably producing GFP-G3BP1 or genomically producing Halo-G3BP1 were seeded at 0.25×10^6 cells in imaging dishes. One day after seeding, cells were chemically transfected with typically 2-μg plasmid DNA (1 μg of the ACTB plasmid fused with an RNA tag of interest mixed with 1 μg of the transfection marker pNLS-TagBFP (in pcDNA)) using the TransIT transfection system following manufacturer recommendations (Mirus). On the next day, cells were stained and bead loaded with the Cbl-fluorophore probe as described above. The media that was added after bead loading contained 0.5 mM sodium arsenite and cells were incubated at 37° C./5% CO 2 for 30-45 min to induce stress granules. Cells were rinsed once in PBS and Fluorobrite media (Gibco), supplemented with 0.5 mM sodium arsenite, was added for live cell imaging. For correlative live/fixed imaging where cells were first imaged live, followed by fixation and FISH/immunofluorescence imaging of the same cells, the following modifications were made to the protocol above. Instead of home-made imaging dishes, gridded imaging dishes (MatTek) were used. Dishes were coated with 1 μg/mL fibronectin (Sigma) for 4 hours and fibronectin was rinsed once with full media before cells were seeded. Because plasmid ACTB-(AT) 4x was used, a higher concentration of Cbl-5xPEG-ATTO590 was bead loaded (3 μL of 50 μM probe).
For live imaging of SGs tagged with 2xdBroccoli in U2-OS cells, the pinhole was 67.7 μm and the laser settings were as follows. For the DAPI channel, the laser was set at 5.0 (HV=110), for the GFP channel the laser was set at 1.0 (HV=110), for the TRITC channel the laser was set at 1.0 (HV=40). For live imaging of SGs tagged with MS2 stem-loop repeats in U2-OS cells, the pinhole was 67.7 μm and the laser settings were as follows. For the DAPI channel, the laser was set at 5.0 (HV=110), for the GFP channel the laser was adjusted for optimal contrast without detector saturation (approximately 1.0-2.5) (HV approximately 60-100), for the TRITC channel the laser was set at 0.9 (HV=40).

[2] = target: Cbl riboswitch RNA variant A (wild type env8); assay: Isothermal titration calorimetry (ITC), aptamer A; assay type: binding; conditions: ITC at 25° C., RNA buffer; mean of 3 independent experiments +/- STDEV
Protocol: (§2) ITC experiments were performed using protocols previously established and described [reference 30, 31]. Briefly, the RNA was dialyzed overnight at 4° C. into RNA buffer (100 mM KCl, 10 mM NaCl, 1 mM MgCl2, 50 mM HEPES, pH 8.0) using 6-8000 Dalton molecular weight cutoff dialysis tubing (Spectra/Por). The dialysis buffer was used to dissolve Cbl and Cbl-5xPEG-ATTO590, and to dilute RNA To the desired concentration. Titrations were performed at 25° C. using a MicroCal ITC 200 microcalorimeter (GE Healthcare) and data were fit using the Origin software suite as previously described [reference 61].

[3] = target: truncated Cbl riboswitch RNA variant AT; assay: Isothermal titration calorimetry (ITC), aptamer AT; assay type: binding; conditions: ITC at 25° C., RNA buffer; mean of 3 independent experiments +/- STDEV
Protocol: as §2

[4] = target: Cbl riboswitch RNA variant D; assay: Isothermal titration calorimetry (ITC), aptamer D; assay type: binding; conditions: ITC at 25° C., RNA buffer; mean of 3 independent experiments +/- STDEV
Protocol: as §2

[5] = system: SM-KDM5B translation reporter tagged with 12 copies of Riboglow; assay: Translation assay, live U2-OS cells; assay type: cell-based
Protocol: U2-OS cells seeded on home-made imaging dishes as described above were bead loaded with a mix of 1 μg plasmid DNA encoding for the SM-KDM5B translation reporter, 3 μL of a 5 μM stock of the Cbl-fluorophore probe Cbl-4xGly-ATTO 590 and 1 μL of Alexa488-labeled Fab to bind N-terminal FLAG tags in the reporter. After 6-8 hours, cells were washed 3 times with PBS, and medium was replaced with FluoroBrite medium (Gibco). Imaging was performed under HILO conditions [reference 49] at 37° C. and 5% CO2 using an Andor Ixon Ultra DU897U-C50 EMCCD camera. When indicated, puromycin was added during the image acquisition at a final concentration of 50 μg/mL.

SMILES: C/C1=C2/[N-][C@H]([C@H](CC(N)=O)[C@@]2(C)CCC(=O)NC[C@@H](C)OP(=O)([O-])O[C@H]2[C@@H](O)[C@@H](n3cnc4cc(C)c(C)cc43)O[C@@H]2Cn2cc(CNC(=O)c3ccc4c(c3)C3(OC4=O)c4ccc(O)cc4Oc4cc(O)ccc43)nn2)[C@]2(C)N=C(/C(C)=C3N=C(/C=C4N=C1[C@@H](CCC(N)=O)C\4(C)C)[C@@H](CCC(N)=O)[C@]\3(C)CC(N)=O)[C@@H](CCC(N)=O)[C@]2(C)CC(N)=O.[C-]#N.[Co+3] [Cbl-FAM]
- Fold fluorescence turn-on [1]: 0.5x
- Fold fluorescence turn-on (RNA AT): 2.5x

SMILES: CC1=N/C(=C\c2cc(F)c(O)c(F)c2)C(=O)N1CC(F)(F)F [DFHBI-1T]
- fluorescence remaining after photobleaching (Broccoli): < 20%
- cells with Halo-G3BP1 labeled SGs where no corresponding SGs in the green Broccoli channel were detectable (ACTB-(2xdBroccoli) mRNA): 90%
- total SGs detected in the green Broccoli channel (ACTB-(2xdBroccoli) mRNA): 4%
- transfected cells in which at least one SG was detected in the green channel (ACTB-(2xdBroccoli) mRNA): 10%

SMILES: C/C1=C2/N[C@H]([C@H](CC(N)=O)[C@@]2(C)CCC(=O)NC[C@@H](C)OP(=O)(O)O[C@H]2[C@@H](O)[C@@H](n3cnc4cc(C)c(C)cc43)O[C@@H]2CO)[C@]2(C)N=C(/C(C)=C3N=C(/C=C4N=C1[C@@H](CCC(N)=O)C\4(C)C)[C@@H](CCC(N)=O)[C@]\3(C)CC(N)=O)[C@@H](CCC(N)=O)[C@]2(C)CC(N)=O.[Co] [Cbl, cobalamin]
- Kd [2]: 0.037 ± 0.001 µM
- Kd [3]: 0.29 µM
- Kd [4]: 0.0022 ± 0.0016 µM

SMILES: COc1ccc(C[C@H](N)C(=O)N[C@H]2[C@@H](O)[C@H](n3cnc4c(N(C)C)ncnc43)O[C@@H]2CO)cc1 [Puromycin]
- protein signal at translation sites ([5]; Puromycin added to cells with co-moving translation spots): rapid disappearance of the protein signal
- mRNA spots colocalized with protein signal ([5]; after Puromycin treatment, 50 μg/mL): 30±12%
